Entries after “also recorded” stand apart in the source; their conditions may differ. Like-named read-outs stand apart in the source and are kept apart here.
Legend:
[1] = system: NET; experiment: Inhibition of [3H]nisoxetine binding to NET; set-up: species or system rat; conditions: Table 3; selectivity ratio of IC50 values
Experimental: (§1) Biology. […] Briefly, rat striatum was the source for DAT, and cerebral cortex for SERT and NET. […] Test compounds were dissolved in dimethyl sulfoxide (DMSO) and diluted out in 10% (v/v) DMSO. […] At least five triplicate concentrations of each test compound were studied, spaced evenly around the IC50 value. For DAT uptake assays, uptake of 50 nM [^3H]DA into rat striatal synaptosomes was measured exactly as described by us previously. Briefly, rat striatal P2 membrane fractions were incubated with test compounds for 8 min followed by the additional presence of [^3H]DA for 4 min at 25?. […] Construction of inhibition curves and dissolvement of test compounds were as described above.

[2] = biological target: NET (Rattus norvegicus, UniProt Q9WTR4); experiment: Inhibition of [3H]nisoxetine binding to NET
Experimental: as §1

[3] = biological target: T1, DAT (Rattus norvegicus, UniProt P23977); conditions: Table 2; values marked b: See reference # 22; read-out: DAT binding, IC50, [3H]Win 35,428; cited from earlier work
T1 construct: rat striatum was the source for DAT, and cerebral cortex for SERT and NET; from tissue; P2 synaptosomal fraction for uptake

[4] = biological target: T2, SERT (Rattus norvegicus, UniProt P31652); experiment: Inhibition of [3H]citalopram binding to SERT; conditions: for SERT binding/DAT binding: Table 3, selectivity ratio of IC50 values
T2 construct: rat striatum was the source for DAT, and cerebral cortex for SERT and NET; from tissue; host or cells: rat cerebral cortex
Experimental: as §1

[5] = biological target: T1, DAT; experiment: Inhibition of [3H]WIN 35,428 binding to DAT
Experimental: as §1

[6] = biological target: T3, NET (Rattus norvegicus); experiment: NET uptake inhibition, [3H]NE; assay type: biochemical; conditions: Table 4; rat brain
T3 construct: from tissue

[7] = biological target: T1, DAT; experiment: Inhibition of [3H]DA uptake by DAT into rat striatal synaptosomes; assay type: biochemical; conditions: for [3H]DA uptake/DAT binding: Table 3, ratio of IC50 values
Experimental: as §1

[8] = biological target: T2, SERT; experiment: SERT uptake inhibition, [3H]5-HT; assay type: biochemical
[9] = biological target: T4, NET (Rattus norvegicus, UniProt Q63380); experiment: NET uptake inhibition, [3H]NE; assay type: biochemical; conditions: in vitro data, Table 4
T4 construct: from tissue

[10] = Table 2, average ± SEM, read-out: NET binding, IC50 [3H]nisoxetine
[11] = Table 2, average ± SEM, read-out: SERT binding, IC50 [3H]citalopram
[12] = Table 4, rat brain, read-out: DAT uptake, IC50 [3H]DA
[13] = Table 4, rat brain, read-out: SERT uptake, IC50 [3H]5-HT
[14] = Table 4, rat brain, read-out: DAT binding, IC50, [3H]Win 35,428
[15] = Table 2, average ± SEM, read-out: DAT uptake, IC50 [3H]DA

T2 sequence (P31652 whole entry): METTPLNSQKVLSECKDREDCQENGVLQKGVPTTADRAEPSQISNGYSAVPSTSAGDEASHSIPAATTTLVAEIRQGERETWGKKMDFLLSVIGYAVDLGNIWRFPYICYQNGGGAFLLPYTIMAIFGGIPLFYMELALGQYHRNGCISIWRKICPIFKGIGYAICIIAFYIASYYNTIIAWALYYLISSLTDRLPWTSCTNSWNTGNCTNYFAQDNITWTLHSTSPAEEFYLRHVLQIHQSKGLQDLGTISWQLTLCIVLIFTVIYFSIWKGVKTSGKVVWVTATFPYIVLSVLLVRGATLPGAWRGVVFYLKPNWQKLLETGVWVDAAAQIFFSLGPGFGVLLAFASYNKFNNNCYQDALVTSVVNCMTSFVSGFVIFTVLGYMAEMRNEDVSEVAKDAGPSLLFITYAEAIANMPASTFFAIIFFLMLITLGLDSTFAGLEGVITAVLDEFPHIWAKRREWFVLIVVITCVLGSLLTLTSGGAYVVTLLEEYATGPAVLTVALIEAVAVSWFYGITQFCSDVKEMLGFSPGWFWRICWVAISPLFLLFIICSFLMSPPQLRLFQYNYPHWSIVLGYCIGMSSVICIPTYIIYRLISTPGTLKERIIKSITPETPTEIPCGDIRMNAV
T3 sequence (Q63380 1-617): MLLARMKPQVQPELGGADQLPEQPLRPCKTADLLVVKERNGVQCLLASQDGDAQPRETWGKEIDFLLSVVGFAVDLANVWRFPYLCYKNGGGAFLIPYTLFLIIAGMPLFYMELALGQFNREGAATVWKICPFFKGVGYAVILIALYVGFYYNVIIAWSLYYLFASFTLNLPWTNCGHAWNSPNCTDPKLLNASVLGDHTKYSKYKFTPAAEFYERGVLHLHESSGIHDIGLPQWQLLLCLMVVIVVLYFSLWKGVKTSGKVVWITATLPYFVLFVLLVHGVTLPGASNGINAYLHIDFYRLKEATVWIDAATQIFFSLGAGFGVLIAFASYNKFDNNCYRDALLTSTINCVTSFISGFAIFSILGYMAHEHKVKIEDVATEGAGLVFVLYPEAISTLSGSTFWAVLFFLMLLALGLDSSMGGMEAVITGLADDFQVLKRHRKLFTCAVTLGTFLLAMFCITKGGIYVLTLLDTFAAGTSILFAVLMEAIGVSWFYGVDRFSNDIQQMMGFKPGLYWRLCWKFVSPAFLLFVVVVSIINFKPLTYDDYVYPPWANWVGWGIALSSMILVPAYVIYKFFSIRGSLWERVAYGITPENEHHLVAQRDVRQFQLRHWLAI
T1 sequence (P23977 whole entry): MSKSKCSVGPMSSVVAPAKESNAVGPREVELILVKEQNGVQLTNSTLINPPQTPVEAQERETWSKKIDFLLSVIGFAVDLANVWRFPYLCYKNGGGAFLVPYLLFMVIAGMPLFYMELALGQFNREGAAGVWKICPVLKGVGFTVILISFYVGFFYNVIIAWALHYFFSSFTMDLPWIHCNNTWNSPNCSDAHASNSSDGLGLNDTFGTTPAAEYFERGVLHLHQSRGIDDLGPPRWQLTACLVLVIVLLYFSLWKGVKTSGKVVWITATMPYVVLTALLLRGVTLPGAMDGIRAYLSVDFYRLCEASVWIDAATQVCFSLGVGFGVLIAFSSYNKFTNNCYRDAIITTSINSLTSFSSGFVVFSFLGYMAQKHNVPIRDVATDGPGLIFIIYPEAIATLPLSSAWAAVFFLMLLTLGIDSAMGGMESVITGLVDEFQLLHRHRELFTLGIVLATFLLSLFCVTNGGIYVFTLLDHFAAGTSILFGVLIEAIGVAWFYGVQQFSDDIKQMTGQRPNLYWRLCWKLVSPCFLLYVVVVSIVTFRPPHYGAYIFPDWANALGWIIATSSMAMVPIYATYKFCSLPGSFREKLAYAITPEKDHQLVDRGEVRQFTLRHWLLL
T4 sequence (Q63380 1-617): as the sequence (Q63380 1-617) above

For Fc1ccc(CN[C@H]2CC[C@H](C(c3ccccc3)c3ccccc3)OC2)cc1 (relative stereo) [Compound 16a, trans-2-diphenylmethyl-5-(4-fluorobenzylamino)-tetrahydropyran], the “NET binding/DAT binding” value [1] was 40.6, the IC50 ([2]; Table 1, read-out: Inhibition of [3H]nisoxetine binding to NET, IC50) was 12700 nM and the IC50 [2, 10] was 12700 nM. For the same molecule, the IC50 [3] was 313 nM, the IC50 ([4]; Table 1, read-out: Inhibition of [3H]citalopram binding to SERT, IC50) was 8410 nM and the IC50 [4, 11] was 8410 nM. The “SERT binding/DAT binding” value [4] was 26.9, the “activity at DAT, in words” value [5] was “much weaker at DAT” and the IC50 ([5]; Table 1, rat striatum, read-out: Inhibition of [3H]Win 35,428 binding to DAT IC50) was 313 ± 71 nM.

Work on O[C@@H]1CO[C@@H](C(c2ccccc2)c2ccccc2)C[C@@H]1NCc1ccccc1 [(+)-29h, (3S,4S,6R)-6-benzhydryl-4-benzylamino-tetrahydropyran-3-ol] yielded an IC50 [6] of 3220 ± 570 nM, an IC50 [7, 12] of 962 ± 97 nM and an IC50 [8, 13] of 4420 ± 410 nM. The IC50 [5, 14] was 1250 ± 100 nM.

With COc1ccc(CN[C@H]2C[C@H](C(c3ccccc3)c3ccccc3)OC[C@H]2O)cc1 [(+)-29g, (3S,4S,6R)-6-benzhydryl-4-(4-methoxy-benzylamino)-tetrahydropyran-3-ol] the IC50 [6] was 1840 ± 580 nM, the IC50 [7, 12] was 2670 ± 260 nM and the IC50 [8, 13] was 3810 ± 460 nM. It also gave an IC50 [5, 14] of 3750 ± 620 nM.

Work on O[C@@H]1C[C@@H](C(c2ccccc2)c2ccccc2)OC[C@H]1NCCc1ccc(F)cc1 [(−)-29c, (2S,4R,5R)-2-benzhydryl-5-[2-(4-fluoro-phenyl)-ethylamino]-tetrahydropyran-4-ol] yielded an IC50 [6] of 439 ± 14 nM, an IC50 [7, 12] of 427 ± 67 nM and an IC50 [8, 13] of 3570 ± 140 nM. For the same molecule, the IC50 [5, 14] was 1050 ± 40 nM.

O[C@H]1C[C@H](C(c2ccccc2)c2ccccc2)OC[C@@H]1NCCc1ccc(F)cc1 [(+)-29c, (2R,4S,5S)-2-benzhydryl-5-[2-(4-fluoro-phenyl)-ethylamino]-tetrahydropyran-4-ol] gave an IC50 [6] of 77.3 ± 3 nM, an IC50 [7, 12] of 218 ± 20 nM and an IC50 [8, 13] of 2950 ± 380 nM. The IC50 [5, 14] was 443 ± 52 nM.

In the case of O=[N+]([O-])c1ccc(CN[C@H]2CC[C@@H](C(c3ccccc3)c3ccccc3)OC2)cc1 (relative stereo) [Compound 16d, Cis-(6-benzhydryl-tetrahydropyran-3-yl)-(4-nitro-benzyl)-amine], the “potency in inhibiting binding versus uptake, in words” value ([7]; DA uptake assay compared with DAT binding) is reported as “three fold higher potency in inhibiting binding than uptake”, the IC50 [7, 15] is reported as 102 ± 7 nM and the “[3H]DA uptake/DAT binding” value [7] is reported as 2.7. The IC50 [3] was 38.3 nM, the “activity at DAT, in words” value [5] was “the most active for the DAT” and the IC50 ([5]; read-out: IC50 at the DAT) was 38.3 nM.

For O[C@@H]1C[C@@H](C(c2ccccc2)c2ccccc2)OC[C@H]1NCc1ccc(F)cc1 [(−)-29b, (2S,4R,5R)-2-benzhydryl-5-(4-fluoro-benzylamino)-tetrahydro-pyran-4-ol], the “selectivity for the NET (NRI profile), in words” value [9] was “selective blockers for NET”, the “selectivity for the NET (NRI profile), in words” value ([9]; listed as (−)29b) was “more selective for the NET” and the IC50 [6] was 13.3 ± 1 nM. For the same molecule, the IC50 [7] was 169 ± 20 nM, the IC50 [8] was 676 ± 33 nM and the IC50 [5] was 308 ± 25 nM.

Molecule COc1ccc(CN[C@@H]2C[C@@H](C(c3ccccc3)c3ccccc3)OC[C@@H]2O)cc1 [(−)-29g, (3R,4R,6S)-6-benzhydryl-4-(4-methoxy-benzylamino)-tetrahydro-pyran-3-ol] has an IC50 [6] of 765 ± 34 nM, an IC50 [7, 12] of 822 ± 120 nM and an IC50 [8, 13] of 1070 ± 100 nM. The IC50 [5, 14] was 771 ± 86 nM.

Molecule O[C@H]1C[C@H](C(c2ccccc2)c2ccccc2)OC[C@@H]1NCc1ccc(F)cc1 [(+)-29b, (2R,4S,5S)-2-benzhydryl-5-(4-fluoro-benzylamino)-tetrahydro-pyran-4-ol] has an IC50 [6] of 1130 ± 580 nM, an IC50 [7] of 440 ± 30 nM and an IC50 [8] of 5560 ± 640 nM. For the same molecule, the IC50 [5] was 1030 ± 120 nM.

COc1ccc(CN[C@@H]2CO[C@H](C(c3ccccc3)c3ccccc3)C[C@H]2O)c(OC)c1 [(−)-29e, (2S,4R,5R)-2-benzhydryl-5-(2,4-dimethoxy-benzylamino)-tetrahydropyran-4-ol] gave an IC50 [6] of 115 ± 14 nM, an IC50 [7, 12] of 710 ± 130 nM and an IC50 [8, 13] of 24 ± 4 nM. For the same molecule, the “blockade of both SERT and NET (SNRI profile), in words” value ([8]; in vitro data, Table 4, SERT and NET) was “dual transport blockers; also recorded: potent blockers for both SERT and NET” and the IC50 [5, 14] was 1060 nM.

In the case of O[C@@H]1CO[C@H](C(c2ccccc2)c2ccccc2)C[C@H]1NCc1ccccc1 [(−)-29h, (3S,4R,6S)-6-benzhydryl-4-benzylamino-tetrahydropyran-3-ol], the IC50 [6] is reported as 336 ± 33 nM, the IC50 [7, 12] is reported as 2610 ± 140 nM and the IC50 [8, 13] is reported as 10000 nM. For the same molecule, the IC50 [5, 14] was 4640 ± 1030 nM.

In the case of Fc1ccc(CN[C@H]2CC[C@@H](C(c3ccccc3)c3ccccc3)OC2)cc1 (relative stereo) [Compound 16b, Cis-(6-benzhydryl-tetrahydropyran-3-yl)-(4-fluoro-benzyl)-amine], the “NET binding/DAT binding” value [1] is reported as 1.4, the IC50 [2, 10] is reported as 232 ± 46 nM and the IC50 [7, 15] is reported as 146 ± 36 nM. For the same molecule, the “[3H]DA uptake/DAT binding” value [7] was 0.96, the IC50 [3] was 163 nM and the IC50 [4, 11] was 1860 nM. For the same molecule, the “SERT binding/DAT binding” value [4] was 11.4.
